Laboratory results: patent US20070179113A1, “GM-CSF gene therapy for Crohn's disease using an improved regulated expression system” (Schering Aktiengesellachaft, priority 2005, published 2007)

How the values were obtained:
[1] = system: acute EAE in SJL mice; experiment: Mouse acute EAE model, gene-based delivery of mIFN-β; type: in vivo; details: 100,000 Units s.c. every other day
[2] = system: EAE in SJL mice; experiment: Murine active EAE model, mIFN-β protein and pBRES mIFN-β plasmid with MFP pellet; type: in vivo; details: 25 days
Description: FIG. 39A illustrates the effect of treatment of mice with induced EAE neuroinflammation with mIFN-β protein by SC injection every other day for 25 days. SJL mice were immunized on day 1 with proteolipid peptide (PLP) amino acids 139-151/pertussis according to the protocol described in Material and Methods. Groups of mice (n=10 per group) were injected SC on day 1 with mIFN-β protein, 100,000 units (500 ng) or 300,000 units (1500 ng), or vehicle. Animals were scored for EAE disease progression and the average clinical scores are provided with the standard error of the mean score (SEM).
FIG. 39B illustrates the delay in the onset of disease and decrease in the severity of disease following administration of pBRES mIFN-β as compared to the null vector control group. SJL mice were immunized on day I with PLP 139-151/pertussis according to the protocol described. Groups of mice (n=10 per group) were injected IM on day-7 with 200 ug of either pBRES null plasmid DNA or pBRES mIFN-β plasmid DNA with electroporation. One group of mice were treated daily with Prednisolone by IP injection and served as the positive control for the study. Plasmid treated mice were administered one mifepristone (MFP) containing slow release pellets by SC injection on day-3. Animals were scored for EAE disease progression and the average clinical scores are provided with the standard error of the mean score (SEM). […]

[3] = system: Mx1 RNA; experiment: Mx1 RNA induction in PBMCs after bolus injection of mIFN-β protein; type: in vivo, C57BL/6 mice
Description: FIG. 6 illustrates Mx1 RNA induction following i.v. (A) or i.m. injection (B) of mIFN-β protein. C57BL/6 mice were administered 15, 150, or 500 ng of purified recombinant mIFN-β protein (specific activity-2.0×10^8 units/mg) by either i.v. (via tail vein) or i.m. injection (n=3 mice per group). At the specified time points post-injection mice were bled, and RNA was isolated from PBMCs. Mx1 RNA was measured by quantitative RT-PCR. The fold increase in Mx1 RNA is expressed relative to GAPDH values measured in the same samples. The controls include naive mice (N), and mice injected with the vehicle buffer only followed by Mx1 analysis at 2 hours (V2 h) or 4 h (V4 h) post-injection. Each column represents the mean value +/− standard deviation.
A quantitative PCR/RT-PCR assay was developed to quantitate the levels of Mx1 mRNA in murine PBMC's. Specifically, peripheral blood mononuclear cells (PBMCs) were isolated from mice treated with either mIFN-β protein or following gene-based delivery of the mIFN-β gene. Blood samples obtained from treated mice were centrifuged on a ficoll cushion for 25 minutes at 2,000 rpm. Purified PBMCs were pelleted and RNA for the Mx1 assay was purified using the “RNAeasy” mini extraction kit from Qiagen. The RNA was stored in H2O at −80° C. Mx1 RT-PCR was performed using TaqMan® chemistry and analysis was done on the Applied Biosystems (ABI) PRISM® 7700 Sequence Detection instrument. For reverse transcription of the RNA and amplification of cDNA, the “One-step TaqMan® RNA” kit from ABI was used. RNA was reverse transcribed for 30 minutes at 48° C. and the amplification was done in 40 cycles with a denaturation step at 95° C. for 30 seconds, and an annealing/elongation step at 60° C. for 1 minute. The samples were analyzed with an Mx1-specific probe/primer combination. Mx1 expression was normalized to GAPDH expression measured in parallel using a standard assay from ABI.
B. Bolus Injection of mIFN-β Protein Induces Transient Biomarker Response In Vivo: The biomarker response after bolus injection of purified recombinant mIFN-β was measured in these studies. […] The highest Mx1 expression levels were measured 2 hours after injection. […] At the 500 ng dose there was a diminished level of Mx1 RNA induction. This saturating effect has been observed in other studies in which high IFN-β levels lead to an apparent down-regulation of the bioresponse, perhaps due to down regulation of the IFN type I receptor (see e.g., Mager, D E and Jusko, W J (2002) Pharm Res 19:1537-43). Mx1 RNA expression in the i.v. injected mice also peaked at approximately 2 hours post-injection and dropped rapidly thereafter.
This is the first time that the expression of Mx1 RNA has been used as a biomarker to follow the activity of mIFN-β in mice. […] However, the upregulation is short term and rapidly drops from high expression levels to background within 12-24 hours.

mIFN-β: purified recombinant murine interferon-beta protein expressed in 293E cells
clinical scores compared to vehicle control [1]: significantly decreased clinical scores
severity of disease (clinical scores) compared to vehicle ([2]; 100,000 units SC every other day): significantly reduced the severity of the disease
severity of disease (clinical scores) compared to vehicle ([2]; 300,000 units SC every other day): significantly reduced the severity of the disease
induction of Mx1 RNA expression relative to vehicle injected mice ([3]; 15, 150 or 500 ng, i.v. or i.m.): 25- to 50 fold
time within which Mx1 upregulation drops to background ([3]; bolus protein): 12 to 24 h
time beyond which no Mx1 RNA levels above background were detected ([3]; i.m.): ≤ 12 h
dose giving the highest Mx1 induction ([3]; i.v.): 150 ng
time of peak Mx1 RNA expression post-injection ([3]; i.v.): approximately 2 hours
time of highest Mx1 expression levels after injection ([3]; i.v. or i.m.): 2 h
